Assay results reported in patent US20100151001A1, “ETHYNYLATED HETERODINUCLEOSIDE PHOSPHATE ANALOGS, METHOD FOR THE PRODUCTION THEREOF, AND USE THEREOF” (Eberhard Karls Universitat Tubingen, priority 2007, published 2010).

Columns and labels:
HOP-92 = assay: cells; format: cell-based; conditions: for TGI: HOP-92 (lung), 100% growth inhibition, 48 h, SRB; for CC50: Homo sapiens, HOP-92, 48 h, read-out: LC50
Procedure: (§1) Tumor cell lines, whose 100% growth inhibition (TGI) by the compounds according to the invention is determined at various concentrations, serve as the test system. The toxicity (LC50) of the compound to these cells is also determined. On day 0, a series of microtiter plates is inoculated with the tumor cells and preincubated for 24 h. Then the compound according to the invention is added to the cells in five in each case 10-fold diluted concentration, starting from the highest soluble concentration. After incubation for 48 hours, the cells are fixed in situ, washed and dried. Then sulforhodamine B (SRB), a pink dye that binds to the fixed cells, is added and the cells are washed again. The dye that remains represents the adherent cell mass and is determined spectroscopically. The automatically acquired data are evaluated by computer and lead, for the compound according to the invention 5-fluoro-2′-deoxyuridylyl-(5′-5′)-3′-C-ethynylcytidine and 5-fluoro-2′-deoxyuridylyl-(3′-5′)-3′-C-ethynylcytidine, to the following results, the data for the 3′-5′-coupled dimer being shown in bold above the data for the 5′-5′-coupled isomer.

ACHN = assay: cells; format: cell-based; conditions: 48 h; for TGI: ACHN (kidneys), 100% growth inhibition, SRB; for CC50: Homo sapiens, ACHN, read-out: LC50
Procedure: as §1

A549/ATCC = assay: cells; format: cell-based; conditions: for TGI: A549/ATCC (lung), 100% growth inhibition, 48 h incubation, SRB; for CC50: Homo sapiens, A549, 48 h, read-out: LC50
Procedure: as §1

T-47D = assay: cells; format: cell-based; conditions: 48 h; for CC50: Homo sapiens, T47D, read-out: LC50; for TGI: T-47D (breast), 100% growth inhibition, SRB
Procedure: as §1

SNB-75 = assay: cells; format: cell-based; conditions: for CC50: Homo sapiens, SNB-75, 48 h, read-out: LC50; for TGI: SNB-75 (central nervous system), 100% growth inhibition, 48 h, SRB
Procedure: as §1

SK-MEL-2 = assay: cells; format: cell-based; conditions: for LC50: Homo sapiens, SK-MEL-2, 48 h, read-out: LC50; for TGI: SK-MEL-2 (melanoma), 100% growth inhibition, 48 h, SRB
Procedure: as §1

DU-145 = assay: cells; format: cell-based; conditions: for TGI: DU-145 (prostate), 100% growth inhibition, 48 h, SRB; for CC50: Homo sapiens, DU-145, 48 h, read-out: LC50
Procedure: as §1

HCC-2998 = assay: cells; format: cell-based; conditions: for TGI: HCC-2998 (intestine), 100% growth inhibition, 48 h, SRB; for CC50: Homo sapiens, HCC 2998, 48 h, read-out: LC50
Procedure: as §1

EKVX = assay: cells; format: cell-based; conditions: 48 h; for TGI: EKVX (lung), 100% growth inhibition, SRB; for CC50: Homo sapiens, EKVX, read-out: LC50
Procedure: as §1

MCF7 = assay: cells; format: cell-based; conditions: for CC50: Homo sapiens, MCF7, 48 h, read-out: LC50; for TGI: MCF7 (breast), 100% growth inhibition, 48 h, SRB
Procedure: as §1

SF-295 = assay: cells; format: cell-based; conditions: for CC50: Homo sapiens, SF-295, 48 h, read-out: LC50; for TGI: SF-295 (central nervous system), 100% growth inhibition, 48 h, SRB
Procedure: as §1

IGROV1 = assay: cells; format: cell-based; conditions: for CC50: Homo sapiens, IGROV-1, 48 h, read-out: LC50; for TGI: IGROV1 (ovaries), 100% growth inhibition, 48 h, SRB
Procedure: as §1

BT-549 = assay: cells; format: cell-based; conditions: for TGI: BT-549 (breast), 100% growth inhibition, 48 h, SRB; for CC50: Homo sapiens, BT-549, 48 h, read-out: LC50
Procedure: as §1

NCI-H522 = assay: cells; format: cell-based; conditions: for CC50: Homo sapiens, NCI-H522, 48 h, read-out: LC50; for TGI: NCI-H522 (lung), 100% growth inhibition, 48 h, SRB
Procedure: as §1

HCT-15 = assay: cells; format: cell-based; conditions: for TGI: HCT-15 (intestine), 100% growth inhibition, 48 h, SRB; for CC50: Homo sapiens, HCT-15, 48 h, read-out: LC50
Procedure: as §1

LOX IMVI = assay: cells; format: cell-based; conditions: 48 h; for CC50: Homo sapiens, LOX IMVI, read-out: LC50; for TGI: LOX IMVI (melanoma), 100% growth inhibition, SRB
Procedure: as §1

CAK-1 = assay: cells; format: cell-based; conditions: 48 h; for CC50: read-out: LC50; for TGI: CAK-1 (kidneys), 100% growth inhibition, SRB
Procedure: as §1

SF-539 = assay: cells; format: cell-based; conditions: for CC50: Homo sapiens, SF-539, 48 h, read-out: LC50; for TGI: SF-539 (central nervous system), 100% growth inhibition, 48 h, SRB
Procedure: as §1

[1] = system: LOX IMVI melanoma xenograft
Procedure: A cell suspension of 5×10^6 tumor cells (LOX IMVI, cell line 01/A/1) was implanted subcutaneously in female athymic nude mice (Animal Production Area, Frederick, Md.). Intraperitoneal administration of the active substance began 3 days after tumor implantation. For this, the active substance was administered dissolved in 10% DMSO/common salt solution plus Tween® 80.
Administration was carried out in each case over a four-day period and comprised a total of 5 treatments. The tests were evaluated by determining the T/C values.
For a model based on solid tumors, a T/C value of 40 must be reached to be regarded as effective.

Tumor cell lines = assay: Cytostatic action in vitro, comparison over the tumor cell lines; format: cell-based
Procedure: as §1

SMILES: C#CC1(O)C(COP(=O)(O)OC[C@H]2O[C@@H](n3cc(F)c(=O)[nH]c3=O)CC2O)OC(n2ccc(N)nc2=O)C1O (stereo in doubt) [Example 2, 5-fluoro-2′-deoxyuridylyl-(5′-5′)-3′-C-ethynylcytidine]
- TGI (HOP-92): 21.5 µM
- CC50 (HOP-92): > 100 µM
- TGI (ACHN): >100 µM
- CC50 (ACHN): > 100 µM
- TGI (A549/ATCC): >100 µM
- CC50 (A549/ATCC): > 100 µM
- CC50 (T-47D): > 100 µM
- TGI (T-47D): >100 µM
- CC50 (SNB-75): > 100 µM
- TGI (SNB-75): >100 µM
- LC50 (SK-MEL-2): 76.4 µM
- TGI (SK-MEL-2): 5.78 µM
- TGI (DU-145): >100 µM
- CC50 (DU-145): > 100 µM
- TGI (HCC-2998): 2.95 µM
- CC50 (HCC-2998): 57.2 µM
- TGI (EKVX): >100 µM
- CC50 (EKVX): > 100 µM
- CC50 (MCF7): > 100 µM
- TGI (MCF7): >100 µM
- CC50 (SF-295): > 100 µM
- TGI (SF-295): 20.6 µM
- CC50 (IGROV1): > 100 µM
- TGI (IGROV1): >100 µM
- TGI (BT-549): 11.6 µM
- CC50 (BT-549): > 100 µM
- CC50 (NCI-H522): > 100 µM
- TGI (NCI-H522): >100 µM
- TGI (HCT-15): >100 µM
- CC50 (HCT-15): > 100 µM
- CC50 (LOX IMVI): ≥ 100 µM
- TGI (LOX IMVI): 100 µM
- CC50 (CAK-1): > 100 µM
- TGI (CAK-1): >100 µM
- CC50 (SF-539): > 100 µM
- TGI (SF-539): 2.01 µM

SMILES: C#CC1(O)C(COP(=O)(O)OC2C[C@H](n3cc(F)c(=O)[nH]c3=O)O[C@@H]2CO)OC(n2ccc(N)nc2=O)C1O (stereo in doubt) [Example 1, 5-fluoro-2′-deoxyuridylyl-(3′-5′)-3′-C-ethynylcytidine]
- optimum T/C value ([1]; 11.2 mg/kg/injection intraperitoneal, 5 treatments, day 13, nude mice): 16
- maximum T/C value ([1]; 16.75 mg/kg/injection intraperitoneal, 5 treatments, day 11 after tumor implantation, nude mice): 7
- in vivo activity in the tumor model ([1]; LOX IMVI xenograft, overall conclusion): significant in vivo activity
- TGI (HOP-92): 2.18 µM
- CC50 (HOP-92): > 100 µM
- TGI (ACHN): 1.52 µM
- CC50 (ACHN): > 100 µM
- TGI (A549/ATCC): 29.6 µM
- CC50 (A549/ATCC): > 100 µM
- CC50 (T-47D): > 100 µM
- TGI (T-47D): 26.7 µM
- CC50 (SNB-75): 4.72 µM
- TGI (SNB-75): 0.882 µM
- LC50 (SK-MEL-2): 69.5 µM
- TGI (SK-MEL-2): 0.424 µM
- TGI (DU-145): 0.44 µM
- CC50 (DU-145): > 100 µM
- TGI (HCC-2998): 0.109 µM
- CC50 (HCC-2998): 1.73 µM
- TGI (EKVX): 6.37 µM
- CC50 (EKVX): > 100 µM
- CC50 (MCF7): > 100 µM
- TGI (MCF7): 0.137 µM
- CC50 (SF-295): > 100 µM
- TGI (SF-295): 1.07 µM
- CC50 (IGROV1): > 100 µM
- TGI (IGROV1): 12.9 µM
- TGI (BT-549): 0.346 µM
- CC50 (BT-549): 6.39 µM
- CC50 (NCI-H522): > 100 µM
- TGI (NCI-H522): 1.15 µM
- TGI (HCT-15): 15.1 µM
- CC50 (HCT-15): > 100 µM
- CC50 (LOX IMVI): 91.5 µM
- TGI (LOX IMVI): 0.348 µM
- CC50 (CAK-1): > 100 µM
- TGI (CAK-1): 0.0829 µM
- CC50 (SF-539): 32.2 µM
- TGI (SF-539): 0.167 µM
- effectiveness compared with the 5′-5′-coupled duplex active substance (example 2) (Tumor cell lines; in vitro, tumor cell lines of the table): much more effective
- TGI values lower compared with the 5′-5′-coupled isomer (Tumor cell lines; often, over the tumor cell lines): up to 1000 times
